Reference: patent publication US20030083469A1, “Allosteric control of nuclear hormone receptors” (The Salk Institute for Biological Studies, priority 1995, published 2003)

What was measured:
GAL-RAR + RXR LBD = target: T1, GAL-RAR + RXR LBD (Homo sapiens, UniProt P19793); assay: Transient transfection of GAL-RAR chimera with RXR LBD; format: cell-based; details: 100 nM LG69
T1 construct: or the human RXRα LBD (Glu 203 -Thr 462); expressed in transfected cells; host or cells: CV-1
T1 sequence (P19793 203-462): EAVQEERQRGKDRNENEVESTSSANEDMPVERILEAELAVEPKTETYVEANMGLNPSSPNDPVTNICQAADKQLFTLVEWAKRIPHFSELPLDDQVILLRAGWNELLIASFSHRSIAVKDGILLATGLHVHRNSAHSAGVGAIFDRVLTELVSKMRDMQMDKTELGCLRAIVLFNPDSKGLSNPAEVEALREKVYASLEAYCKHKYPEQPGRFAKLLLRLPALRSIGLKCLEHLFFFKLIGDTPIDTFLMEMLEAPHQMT
Protocol: (§1) CV-1 cells were grown in Dulbecco's Modified Eagle's medium supplemented with 10% resin-charcoal stripped (Samuels et al., Endocrinology 105:80-85 (1979)) fetal bovine serum, 50 U/ml penicillin G and 50 μg/ml streptomycin sulfate (DMEM-FBS) at 37° C. in 5% CO2. One day prior to transfection, cells were plated to 50-80% confluence using phenol-red free DMEM-FBS. Cells were transfected by lipofection using N-{2-(2,3)-dioleoyloxy)propyl-N,N,N-trimethyl ammonium methyl sulfate} according to the manufacturer's instructions (DOTAP, Boehringer Mannheim). […] Cells were harvested and assayed for luciferase and β-galactosidase activity. All points were performed in triplicate in each experiment and varied by less than 10%. Each experiment was repeated three or more times with similar results.
(§2) Since RXR serves as a silent partner in the T3R and RAR pathways, it was next investigated whether RXR could serve as an active component in other complexes. To search for such complexes, the LBD of a number of nuclear receptors were fused to the GAL4 DBD, and tested to determine whether the RXR LBD could confer LG69 responsiveness upon these GAL-LBD chimeras. […] Normalized luciferase activity was determined and plotted as fold-activation relative to untreated cells.

GST-hRXRα = target: T2, GST-hRXRα (Homo sapiens, UniProt P19793); assay: Ligand binding assay with GST-RXR (glutathione-sepharose); details: 50 nM [3H] LG69; 2 μM unlabeled ligand
T2 construct: made in house
T2 sequence (P19793 1-462): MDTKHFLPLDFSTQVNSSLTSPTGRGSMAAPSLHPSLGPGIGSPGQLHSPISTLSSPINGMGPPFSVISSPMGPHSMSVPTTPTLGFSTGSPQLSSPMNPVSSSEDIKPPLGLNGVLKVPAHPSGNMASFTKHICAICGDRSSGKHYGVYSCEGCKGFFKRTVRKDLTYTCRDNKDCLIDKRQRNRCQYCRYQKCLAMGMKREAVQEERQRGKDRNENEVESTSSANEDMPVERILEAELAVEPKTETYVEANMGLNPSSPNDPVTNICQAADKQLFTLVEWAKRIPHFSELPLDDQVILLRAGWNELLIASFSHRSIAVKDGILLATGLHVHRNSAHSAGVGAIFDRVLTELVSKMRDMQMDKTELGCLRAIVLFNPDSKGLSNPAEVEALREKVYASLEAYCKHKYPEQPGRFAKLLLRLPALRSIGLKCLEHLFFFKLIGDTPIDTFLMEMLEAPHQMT

GAL-RXR+T3R LBD = target: T3, GAL-RXR+T3R LBD (Homo sapiens, UniProt P10828+P19793); assay: Transient transfection analysis of GAL-RXR LBD in the presence of T3R LBD; format: cell-based
T3 construct: human RXRα LBD (Glu 203 - Thr 462); human T3Rβ LBD (Leu 173 - Asp 456); expressed in transfected cells; host or cells: CV-1
T3 sequence (P19793 203-462 limits assumed): T1 sequence (P19793 203-462)
T3 sequence (P10828 178-461 limits assumed): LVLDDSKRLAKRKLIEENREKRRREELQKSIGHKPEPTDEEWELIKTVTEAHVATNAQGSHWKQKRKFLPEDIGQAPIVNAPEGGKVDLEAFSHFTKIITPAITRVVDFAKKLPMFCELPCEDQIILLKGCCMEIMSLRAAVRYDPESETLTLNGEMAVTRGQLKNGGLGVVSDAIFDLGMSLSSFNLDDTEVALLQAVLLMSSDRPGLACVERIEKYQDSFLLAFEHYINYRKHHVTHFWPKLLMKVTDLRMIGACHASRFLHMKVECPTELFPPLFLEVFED
Protocol: One day prior to transfection, cells were plated to 50-80% confluence using phenol-red free DMEM-FBS. Cells were transfected by lipofection using N-{2-(2,3)-dioleoyloxy)propyl-N,N,N-trimethyl ammonium methyl sulfate} according to the manufacturer's instructions (DOTAP, Boehringer Mannheim).
Normalized luciferase activity was determined and plotted as fold-activation relative to untreated cells.

GAL-Nurrl + RXR-LBD = target: T4, GAL-Nurrl + RXR-LBD (Homo sapiens, UniProt P19793); assay: Transient transfection of GAL-Nurrl chimera with RXR LBD; format: cell-based, mouse Nurrl, human RXRα; details: RXR-LBD co-expressed with GAL-Nurrl; 100 nM
T4 construct: or the human RXRα LBD (Glu 203 -Thr 462); expressed in transfected cells; host or cells: CV-1
T4 sequence (Q06219 318-598 partner limits assumed, one chain of several): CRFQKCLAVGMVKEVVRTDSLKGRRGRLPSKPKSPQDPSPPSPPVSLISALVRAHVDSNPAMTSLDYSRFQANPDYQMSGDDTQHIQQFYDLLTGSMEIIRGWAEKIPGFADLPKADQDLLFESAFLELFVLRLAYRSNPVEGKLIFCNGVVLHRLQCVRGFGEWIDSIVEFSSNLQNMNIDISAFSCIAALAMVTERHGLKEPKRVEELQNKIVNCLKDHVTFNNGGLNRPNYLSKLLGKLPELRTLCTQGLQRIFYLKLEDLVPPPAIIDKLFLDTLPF
Protocol: as §1, §2

## CC=C(c1ccc(C(=O)O)cc1)c1cc2c(cc1C)C(C)(C)CCC2(C)C [LG69, 4-{1-(3,5,5,8,8-pentamethyl-5,6,7,8-tetrahydro-2-napthalenyl)-1-propenyl}benzoic acid]
GAL-RAR + RXR LBD
  LG69 responsiveness: not seen
GST-hRXRα
  competition of [3H] LG69 binding to GST-RXR by unlabeled ligand: specifically completed
GAL-RXR+T3R LBD; 100 nM T3+100 nM LG69
  activity of T3+LG69 compared with T3 alone: slightly less activity
GAL-RXR+T3R LBD; GAL-RXR+T3R LBD (unliganded), 100 nM LG69
  fold response to LG69: 57 fold
GAL-Nurrl + RXR-LBD
  responsiveness to ligand: strong responsiveness
